Laboratory results taken from patent US8497278B2, “Imidazo[1,2-a]pyridine compounds” (priority 2008, dated 2013).

Key:
[1] = system: central benzodiazepine receptors; assay: Central benzodiazepine receptor binding (test of Speth et al.); details: 1000 nM of the compound
In short: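 Values are percent inhibition of central benzodiazepine receptor binding at 1000 nM compound (initial single-point screen at 1.0E-09, 1.0E-07 and 1.0E-05 M). Speth et al. binding test; nonspecific binding defined with excess unlabelled ligand and subtracted from total.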

[2] = molecular target: T1, α1 subtype containing GABA-A receptors (Homo sapiens, UniProt P14867+P18507); assay: Two-electrode voltage clamp electrophysiology in Xenopus oocytes, potentiation of GABA EC20 response, α1; type: cell-based; details: 100 nM compound, read-out: Percentage of potentiation alpha1
T1 construct: expressed in transfected cells; host or cells: Xenopus laevis oocytes, cRNA injected
In short: (§1)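 TEVC, oocytes expressing human αx/β3/γ2L GABA-A; Vh −80 mV; ND96 pH 7.5 perfusion. 3 × 20-s GABA EC20 (60 μM) baseline → 1 μM CDP standard → compound 100 nM. Low-current or poorly γ2L-incorporating oocytes excluded.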

[3] = molecular target: T2, α2 subtype containing GABA-A receptors (Homo sapiens, UniProt P18507+P47869); assay: Two-electrode voltage clamp electrophysiology in Xenopus oocytes, potentiation of GABA EC20 response, α2; type: cell-based; details: 100 nM compound, read-out: Percentage of potentiation alpha2
T2 construct: expressed in transfected cells; host or cells: Xenopus laevis oocytes, cRNA injected
In short: as §1

Wistar rats = assay: Vogel conflict test; type: in vivo; details: rat, 60 min before test, 3 minute test
Experimental: Vogel Conflict Test Protocol: The Vogel conflict test is an animal model of anxiety described by Vogel et al. (1971). In this test, water deprived animals are placed in a cage with free access to a drinking bottle. Whenever the animal drinks, an electric shock is administered. Animals punished during drinking rapidly cease to drink. Anxiolytic drugs decrease the effect of punishment and increase the number of shocks accepted by the rats in this conflict situation. Male Wistar rats were used in these studies. Rats were deprived of water for approximately 48 hours and then placed individually into a transparent Plexiglas enclosure with a floor consisting of stainless steel bars spaced 1 cm apart. The back wall of the enclosure was made of opaque Plexiglas thereby concealing the observer from the experimental animal. In the center of the opposite wall, 5 cm above the floor, a metal water spout protruded into the cage and was connected to one pole of a shock generator. The other pole of the shock generator was connected to the metal grid floor. The rat is left to explore until it finds the water spout. Then, every time it drinks, it receives an electric shock (1.7 mA, 1 sec duration) 2 seconds after it starts drinking The number of punished drinks is counted during a 3 minute test. Ten rats are studied per treatment group. Clobazam (64 mg/kg) was used as the positive control. Compounds of the present invention, vehicle (45% hydroxypropyl beta-cyclodextrin) and clobazam were administered orally to all groups (n=10 […] per group) 60 minutes prior to behavioral testing. All data were analyzed using unpaired Student's t-tests. An effect was considered significance if p<0.05.

[4] = molecular target: T3, α3 subtype containing GABA-A receptors (Homo sapiens, UniProt P18507+P34903); assay: Two-electrode voltage clamp electrophysiology in Xenopus oocytes, potentiation of GABA EC20 response, α3; type: cell-based; details: 100 nM compound, read-out: Percentage of potentiation alpha3
T3 construct: expressed in transfected cells; host or cells: Xenopus laevis oocytes, cRNA injected
Experimental: (§2) Electrophysiology protocol: Oocytes were prepared from adult female Xenopus laevis frogs. cRNA encoding human α1, α2, α3, α5, β3 and γ2L GABAA receptor subunits was injected into the cytoplasm of stage 5 or 6 oocytes using the Robocyte Robot (Multi Channel Systems, Reutlingen, Germany). Two-electrode voltage clamp recordings were made in 96-well plates using the Robocyte Robot. Oocytes were impaled using recording heads with two glass electrodes containing 1.5 M potassium acetate and 0.5 M KCl and held at a membrane potential of −80 mV. Oocytes were continually perfused with a ND96 solution (96 mM NaCl, 2 mM KCl, 0.1 mM CaCl2, and 5 mM HEPES, pH 7.5) using a Gilson 222 XL Liquid Handler and Gilson Minipuls 3 Peristaltic Pump (Gilson Medical Electronics, Middleton, Wis., USA). The protocol consisted of three 20-s applications of GABA that gave a 20% of the maximum response (EC20: 60 μM) to allow for headroom to determine a baseline GABA response. To assess the potentiation, oocytes were first exposed to a single 1 μM chlordiazepoxide (CDP) as a potentiation standard. Oocytes with insufficient expression levels (currents below threshold) or insufficient γ2L subunit incorporation (judged by rapid desensitization upon GABA application, or by insufficient potentiation by CDP) were not included in analysis. Following this control application, a given oocyte was exposed to test compounds at 100 nM concentrations. Only one concentration of one compound was tested per oocyte. […] One skilled in the art will recognize that subtypes contribute to the effects of GABA-A modulators. Such that compounds favoring different subtypes can have different therapeutic effects. The magnitude of modulation, for example, partial modulators can influence the effects in vivo. “++” indicates a greater modulation that “+” so that at any given subtype “++” inducates a greater amount of modulation for that subtype. In some embodiments, modulation favoring alpha 1 relative to alpha2 and/or alpha 3 can have sedative hypnotic effects. In other embodiments, compounds with reduced selectivity of alpha 1 can express anxiolytic effects with less sedation. Compounds with selectivity for alpha 5 can have memory/cognition enhancing effects.

[5] = molecular target: T4, α5 subtype containing GABA-A receptors (Homo sapiens, UniProt P18507+P31644); assay: Two-electrode voltage clamp electrophysiology in Xenopus oocytes, potentiation of GABA EC20 response, α5; type: cell-based; details: 100 nM compound, read-out: Percentage of potentiation alpha5
T4 construct: expressed in transfected cells; host or cells: Xenopus laevis oocytes, cRNA injected
Experimental: as §2

T1 sequence (P14867 28-456): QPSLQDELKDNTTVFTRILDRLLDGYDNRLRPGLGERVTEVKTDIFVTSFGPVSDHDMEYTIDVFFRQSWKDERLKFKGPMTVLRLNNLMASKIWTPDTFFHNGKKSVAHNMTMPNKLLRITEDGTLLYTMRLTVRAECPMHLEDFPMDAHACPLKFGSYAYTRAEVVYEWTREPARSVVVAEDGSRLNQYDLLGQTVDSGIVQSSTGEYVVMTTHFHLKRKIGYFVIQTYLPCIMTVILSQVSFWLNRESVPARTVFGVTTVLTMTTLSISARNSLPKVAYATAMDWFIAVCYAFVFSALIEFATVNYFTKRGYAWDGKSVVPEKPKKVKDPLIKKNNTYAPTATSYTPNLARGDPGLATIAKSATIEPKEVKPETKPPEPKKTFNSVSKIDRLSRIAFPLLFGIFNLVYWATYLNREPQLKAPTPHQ
T1 sequence (P28472 26-473 partner): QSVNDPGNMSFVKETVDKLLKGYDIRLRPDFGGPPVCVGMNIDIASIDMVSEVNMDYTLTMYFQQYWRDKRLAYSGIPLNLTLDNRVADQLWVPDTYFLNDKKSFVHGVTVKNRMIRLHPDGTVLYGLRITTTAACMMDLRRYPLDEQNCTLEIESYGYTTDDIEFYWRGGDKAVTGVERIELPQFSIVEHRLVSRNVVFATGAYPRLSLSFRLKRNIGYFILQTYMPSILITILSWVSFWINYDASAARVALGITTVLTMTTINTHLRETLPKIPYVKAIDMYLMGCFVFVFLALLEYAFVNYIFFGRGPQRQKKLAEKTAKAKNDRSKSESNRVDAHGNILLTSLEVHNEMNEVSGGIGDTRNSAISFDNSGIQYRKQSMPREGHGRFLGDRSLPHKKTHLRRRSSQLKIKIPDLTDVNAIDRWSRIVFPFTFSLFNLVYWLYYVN
T1 sequence (P18507 40-475): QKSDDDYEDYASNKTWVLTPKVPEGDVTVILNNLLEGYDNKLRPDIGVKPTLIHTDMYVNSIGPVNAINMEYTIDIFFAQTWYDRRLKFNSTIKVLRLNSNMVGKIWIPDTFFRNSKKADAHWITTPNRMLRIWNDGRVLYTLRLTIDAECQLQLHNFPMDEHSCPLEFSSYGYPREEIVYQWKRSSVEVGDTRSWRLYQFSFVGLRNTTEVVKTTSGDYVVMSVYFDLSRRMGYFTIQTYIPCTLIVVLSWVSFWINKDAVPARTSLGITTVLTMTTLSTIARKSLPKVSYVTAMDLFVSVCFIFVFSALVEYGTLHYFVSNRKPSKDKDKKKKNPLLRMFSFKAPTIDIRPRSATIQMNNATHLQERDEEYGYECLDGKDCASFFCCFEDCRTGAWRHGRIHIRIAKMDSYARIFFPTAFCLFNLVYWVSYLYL
T2 sequence (P47869 29-451): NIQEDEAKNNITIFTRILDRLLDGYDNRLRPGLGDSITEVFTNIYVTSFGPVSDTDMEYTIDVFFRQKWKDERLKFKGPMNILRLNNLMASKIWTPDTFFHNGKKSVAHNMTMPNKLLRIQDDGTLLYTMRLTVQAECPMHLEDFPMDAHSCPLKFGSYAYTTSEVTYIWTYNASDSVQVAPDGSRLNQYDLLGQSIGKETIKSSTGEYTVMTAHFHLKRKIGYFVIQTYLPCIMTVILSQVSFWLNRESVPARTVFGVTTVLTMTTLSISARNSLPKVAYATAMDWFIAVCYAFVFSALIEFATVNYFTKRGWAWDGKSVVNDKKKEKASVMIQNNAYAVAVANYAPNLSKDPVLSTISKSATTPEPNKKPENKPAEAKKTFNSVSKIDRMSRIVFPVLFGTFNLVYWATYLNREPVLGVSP
T2 sequence (P28472 26-473 partner): as the sequence (P28472 26-473 partner) above
T2 sequence (P18507 40-475): as the sequence (P18507 40-475) above
T3 sequence (P34903 29-492): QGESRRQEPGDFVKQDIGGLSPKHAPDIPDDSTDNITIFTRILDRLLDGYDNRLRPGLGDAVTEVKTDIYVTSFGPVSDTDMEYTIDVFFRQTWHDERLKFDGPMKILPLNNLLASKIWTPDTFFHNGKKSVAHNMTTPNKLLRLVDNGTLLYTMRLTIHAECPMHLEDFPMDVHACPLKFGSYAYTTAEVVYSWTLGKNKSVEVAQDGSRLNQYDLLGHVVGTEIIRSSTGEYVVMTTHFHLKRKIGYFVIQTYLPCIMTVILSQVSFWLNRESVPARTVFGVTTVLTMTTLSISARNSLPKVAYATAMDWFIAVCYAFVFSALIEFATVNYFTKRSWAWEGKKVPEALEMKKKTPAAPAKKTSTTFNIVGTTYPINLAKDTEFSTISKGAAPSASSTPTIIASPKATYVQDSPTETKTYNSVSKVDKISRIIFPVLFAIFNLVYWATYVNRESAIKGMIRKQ
T3 sequence (P28472 26-473 partner): as the sequence (P28472 26-473 partner) above
T3 sequence (P18507 40-475): as the sequence (P18507 40-475) above
T4 sequence (P31644 32-462): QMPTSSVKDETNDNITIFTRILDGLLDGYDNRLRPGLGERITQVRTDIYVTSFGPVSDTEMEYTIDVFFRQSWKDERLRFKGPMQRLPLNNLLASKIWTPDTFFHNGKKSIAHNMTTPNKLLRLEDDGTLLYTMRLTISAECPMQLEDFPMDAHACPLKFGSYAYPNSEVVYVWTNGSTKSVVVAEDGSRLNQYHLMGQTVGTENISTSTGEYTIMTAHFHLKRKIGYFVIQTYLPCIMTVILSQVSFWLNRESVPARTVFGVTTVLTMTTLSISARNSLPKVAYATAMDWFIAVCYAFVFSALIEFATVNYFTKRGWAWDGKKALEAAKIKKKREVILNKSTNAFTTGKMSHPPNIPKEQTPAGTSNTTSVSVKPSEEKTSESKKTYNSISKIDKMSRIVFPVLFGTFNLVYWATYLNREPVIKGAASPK
T4 sequence (P28472 26-473 partner): as the sequence (P28472 26-473 partner) above
T4 sequence (P18507 40-475): as the sequence (P18507 40-475) above

In the case of `Clc1ccc(-c2nc3ccccn3c2Cn2ccnn2)cc1` [Compound 40, 2-(4-Chloro-phenyl)-3-[1,2,3]triazol-1-ylmethyl-imidazo[1,2-a]pyridine], the “% Inhibition at 1000 nM for CBZD” value [1] is reported as “++ (percentage of inhibition of central BZD site binding is greater than 80% in the presence of 1000 nM of the compound)”, the activation at 0.1 µM [2] is reported as -10 to 10% and the activation at 0.1 µM [3] is reported as 10 to 50%. For the same molecule, the “Number of Shocks Mean ± S.E.M.” value (Wistar rats; 1 mg/kg PO) was 2.4 ± 0.4, the “Number of Shocks Mean ± S.E.M.” value (Wistar rats; 3 mg/kg PO) was 3.4 ± 0.7 and the “Number of Shocks Mean ± S.E.M.” value (Wistar rats; 10 mg/kg PO) was 4.4 ± 0.7.

For `Cc1cc(Cl)nc(NCc2c(-c3ccc(Cl)cc3)nc3ccc(Cl)cn23)n1` [Compound 170, 4-chloro-N-((6-chloro-2-(4-chlorophenyl)imidazo[1,2-a]pyridin-3-yl)methyl)-6-methylpyrimidin-2-amine], the “% Inhibition at 1000 nM for CBZD” value [1] was “++ (percentage of inhibition of central BZD site binding is greater than 80% in the presence of 1000 nM of the compound)”, the activation at 0.1 µM [2] was 10 to 50% and the activation at 0.1 µM [4] was 10 to 50%. For the same molecule, the activation at 0.1 µM [3] was 10 to 50%, the activation at 0.1 µM [5] was -10 to 10% and the “Number of Shocks Mean ± S.E.M.” value (Wistar rats; 0.3 mg/kg PO) was 5.1 ± 0.9. For the same molecule, the “Number of Shocks Mean ± S.E.M.” value (Wistar rats; 1 mg/kg PO) was 5.6 ± 0.9 and the “Number of Shocks Mean ± S.E.M.” value (Wistar rats; 3 mg/kg PO) was 6.5 ± 1.0.
